Each block holds one compound with its values, some of them ahead of it. The source made the active and inactive calls. No cut-off for these calls is given here.
Key:
[1] = target: T1, Glutathione hydrolase 1 proenzyme (Homo sapiens, UniProt P19440); assay: Inhibition of GGT1 (unknown origin) assessed as GSH hydrolysis by measuring inhibition constant
[2] = target: T1, Glutathione hydrolase 1 proenzyme; assay: Inhibition of GGT1 (unknown origin) transpeptidation assessed as inhibition constant using L-GpNA as substrate in presence of Gly-Gly
[3] = target: T1, Glutathione hydrolase 1 proenzyme; assay: Inhibition of GGT1 (unknown origin) assessed as GSH hydrolysis at […] relative to control
[4] = target: T1, Glutathione hydrolase 1 proenzyme; assay: Inhibition of GGT1 (unknown origin) transpeptidation at 37500 uM using L-GpNA as substrate in presence of Gly-Gly relative to control
[5] = In-vivo inhibition of GGT1 in mouse assessed as increase in cystine level in plasma measured after 1 hrs; type: functional
[6] = Inhibition of bovine GGT1 transpeptidation assessed as inhibition constant; design: species or system Bos taurus
[7] = Inhibition of bovine GGT1 assessed as GSH hydrolysis by measuring inhibition constant; design: species or system Bos taurus
[8] = Cmax in C57BL/6 mouse at 0.3 mg/kg, ip; type: ADME, organism-based; design: dose 0.3 mg/kg, route ip; settings: in vivo
[9] = MRT in C57BL/6 mouse at 0.3 mg/kg, ip; type: ADME, organism-based; settings: in vivo
[10] = Half life in C57BL/6 mouse at 0.3 mg/kg, ip; type: ADME, organism-based; settings: in vivo
[11] = Clearance in C57BL/6 mouse at 0.3 mg/kg, ip; type: ADME, organism-based; settings: in vivo
[12] = Volume of distribution at steady in C57BL/6 mouse at 0.3 mg/kg, ip; type: ADME, organism-based; settings: in vivo
Mus musculus [13] = assay: In-vivo inhibition of GGT1 in mouse assessed as effect on cysteine level in plasma measured at 0.5 to 48 hrs; type: functional; settings: dose 0.2-1 mg, time 0.5-48 hrs
Mus musculus [14] = assay: In-vivo inhibition of GGT1 in mouse assessed as effect on GSSG level in plasma measured at 0.5 to 48 hrs; type: functional; settings: dose 0.2-1 mg, time 0.5-48 hrs
Mus musculus [15] = assay: In-vivo inhibition of GGT1 in mouse assessed as effect on GSH level in plasma measured at 0.5 to 48 hrs; type: functional; settings: dose 0.2-1 mg, time 0.5-48 hrs
Mus musculus [16] = assay: In-vivo inhibition of GGT1 in mouse assessed as effect on cysteine level in plasma at 0.2 to 1 mg; type: functional; settings: dose 0.2-1 mg, time 0.5-48 hrs, TDE = time-dependent effect
Mus musculus [17] = assay: In-vivo inhibition of GGT1 in mouse assessed as effect on GSSG level in plasma at 0.2 to 1 mg; type: functional; settings: dose 0.2-1 mg, time 0.5-48 hrs, TDE = time-dependent effect
Mus musculus [18] = assay: In-vivo inhibition of GGT1 in mouse assessed as effect on GSH level in plasma at 0.2 to 1 mg; type: functional; settings: dose 0.2-1 mg, time 0.5-48 hrs, TDE = time-dependent effect
[19] = In-vivo inhibition of GGT1 in mouse assessed as decrease in cysteine level in plasma at 0.03 mg measured after 1 hrs; type: functional
[20] = In-vivo inhibition of GGT1 in mouse assessed as decrease in cystine level in plasma at 0.03 mg measured after 1 hrs; type: functional
[21] = In-vivo inhibition of GGT1 in mouse assessed as decrease in total cysteine level in plasma at 0.03 mg measured after 1 hrs; type: functional
[22] = In-vivo inhibition of GGT1 in mouse assessed as increase in GSSG level in plasma at 0.03 mg measured after 1 hrs; type: functional; settings: values are per cent of control
[23] = In-vivo inhibition of GGT1 in mouse assessed as increase in GSH level in plasma at 0.03 to 1 mg measured after 1 hrs; type: functional; settings: dose 0.03-1 mg, values are per cent of control
Mus musculus [24] = assay: In-vivo inhibition of GGT1 in mouse assessed as decrease in total cysteine level in plasma at 0.03 mg measured after 48 hrs; type: functional
Mus musculus [25] = assay: In-vivo inhibition of GGT1 in mouse assessed as increase in GSH level in plasma at 0.03 mg measured after 48 hrs; type: functional
[26] = In-vivo inhibition of GGT1 in mouse assessed as decrease in GSH level in plasma at 0.03 mg measured after 1 hr; type: functional
[27] = In-vivo inhibition of GGT1 in mouse assessed as decrease in GSH level in plasma at 0.03 mg measured at 24 to 48 hrs; type: functional; settings: time 24-48 hrs
[28] = In-vivo inhibition of GGT1 in mouse assessed as decrease in GSH level in plasma at 0.03 mg measured at 24 hrs; type: functional
[29] = In-vivo inhibition of GGT1 in mouse assessed as decrease in GSH level in plasma at 0.03 mg measured at 48 hrs; type: functional
[30] = In-vivo inhibition of GGT1 in mouse assessed as increase in GSH-NEM level in plasma at 0.03 mg measured after 6 hrs; type: functional; settings: values are per cent of control
[31] = In-vivo inhibition of GGT1 in mouse assessed as increase in GSSG level in plasma at 0.03 mg measured after 6 hrs; type: functional; settings: values are per cent of control
[32] = In-vivo inhibition of GGT1 in mouse assessed as increase in total GSH level in plasma at 0.03 mg measured after 6 hrs; type: functional; settings: values are per cent of control
[33] = In-vivo inhibition of GGT1 in mouse assessed as increase in cystine-NEM level in plasma measured after 1 hrs; type: functional
[34] = target: T1, Glutathione hydrolase 1 proenzyme; assay: Inhibition of GGT1 (unknown origin) transpeptidation at 9100 uM using L-GpNA as substrate in presence of Gly-Gly relative to control

T1 sequence (P19440 1-380 limits assumed): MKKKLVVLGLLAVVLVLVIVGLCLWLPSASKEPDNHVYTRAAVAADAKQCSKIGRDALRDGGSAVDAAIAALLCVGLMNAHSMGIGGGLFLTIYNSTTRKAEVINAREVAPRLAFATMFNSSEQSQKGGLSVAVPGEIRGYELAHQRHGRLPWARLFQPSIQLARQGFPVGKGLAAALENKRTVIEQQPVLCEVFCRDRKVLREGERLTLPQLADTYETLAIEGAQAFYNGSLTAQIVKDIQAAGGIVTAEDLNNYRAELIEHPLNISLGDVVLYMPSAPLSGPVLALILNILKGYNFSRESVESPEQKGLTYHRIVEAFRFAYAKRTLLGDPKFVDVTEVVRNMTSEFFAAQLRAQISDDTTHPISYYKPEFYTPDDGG
T1 sequence (P19440 381-569 limits assumed): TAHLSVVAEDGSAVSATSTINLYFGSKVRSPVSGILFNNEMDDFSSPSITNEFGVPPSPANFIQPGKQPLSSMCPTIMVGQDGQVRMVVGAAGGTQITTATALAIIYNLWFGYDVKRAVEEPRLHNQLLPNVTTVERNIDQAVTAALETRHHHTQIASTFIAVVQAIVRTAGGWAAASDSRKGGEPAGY

SMILES: N[C@@H](CCCB(O)O)C(=O)O
Ki [1]: > 4000 µM | Ki [2]: 3820 µM

SMILES: O=C(O)CCCB(O)O
inhibition [3]: 50% | inhibition [4]: 50%

SMILES: N[C@@H](CCB(O)O)C(=O)O
ID50 [5]: 0.002 mg | Ki [6]: 0.005 µM | Ki [2]: 0.005 µM | Ki [7]: 0.025 µM | Cmax [8]: 15300 ng/mL | MRT [9]: 5.42 h | half-life [10]: 3.92 h | CL/F [11]: 0.0612 mL/min | Vdss [12]: 20.76 mL | inhibition (Mus musculus [13]): Dose-Dependent Effect | inhibition (Mus musculus [14]): Dose-Dependent Effect | inhibition (Mus musculus [15]): Dose-Dependent Effect | inhibition (Mus musculus [16]): Tde | inhibition (Mus musculus [17]): Tde | inhibition (Mus musculus [18]): Tde | inhibition (INH) [19]: 25% | inhibition (INH) [20]: 75% | inhibition (INH) [21]: 35% | response, % of control [22]: 1000% | response, % of control [23]: 250% | inhibition (Mus musculus [24]): Active | inhibition (Mus musculus [25]): Active | inhibition (INH) [26]: 85% | inhibition (INH) [27]: 33% | inhibition (INH) [28]: <50% | inhibition (INH) [29]: 89% | response, % of control [30]: 500% | response, % of control [31]: 1500% | response, % of control [32]: 1000% | ID50 [33]: 0.22 mg

SMILES: NCCCB(O)O
Ki [1]: > 5000 µM | inhibition [34]: inactive

SMILES: N[C@H](CCB(O)O)C(=O)O
Ki [6]: 0.045 µM | Ki [7]: 0.077 µM

Other lines, results leading:

Ki [1]: 874 µM | Ki [2]: 444 µM
SMILES: CCC(N)(CCB(O)O)C(=O)O (racemic)

Ki [1]: 703 µM | Ki [2]: 198 µM
SMILES: CCCC(N)(CCB(O)O)C(=O)O (racemic)

Ki [2]: 68 µM
SMILES: COc1ccc(Cc2nnc(NS(=O)(=O)c3ccccc3)s2)cc1

Ki [1]: 2.8 µM | Ki [2]: 0.92 µM
SMILES: CC(N)(CCB(O)O)C(=O)O (racemic)

From ChEMBL document CHEMBL5365410, “SAR of L-ABBA analogs for GGT1 inhibitory activity and L-ABBA's effect on plasma cysteine and GSH species” (Bioorg Med Chem Lett, 2023)
